Literature values, collected in patent publication US20140227371A1, “EDIBLE COMPOSITION” (priority 2011, published 2014).

Key:
rat liver = conditions: through activation of the β-oxidation system, Tsuduki et al. 2009
[1] = alcohol-induced steatosis and steatohepatitis models; Kang et al. 2005

SMILES	Lipid accumulation (rat liver)	Hepatoprotective effects [1]
OC[C@H]1NC[C@H](O)[C@@H](O)[C@@H]1O [1-Deoxynojirimycin]	suppress lipid accumulation	–
[Zn] [Zinc]	–	hepatoprotective effects
